Data: patent publication US20070148710A1, “Cpt resistant cell line” (priority 2003, published 2007)
Values after ≈ are worked out from the molar mass of the structure shown. Where two headings read alike, the source gives them in different places.

Assays:
SW948 cells = test: clonogenic cell survival assay, CPT-11 IC50; type: cell-based; details: Homo sapiens
Procedure: 81. […] Cells were then washed with PBS and cultured in fresh medium without CPT-11 and a colony formation assay initiated. Ten days later, the surviving fraction of the SW948 and SW948CPTH cells was determined.
82. […] This level of sensitivity was similar to that reported for other cell lines (Kanzawa et al. Cancer Res 50:5919-5924, 1990; Kojima et al. Cancer Res 58:4368-4374, 1998; and Kojima et al. J Clin Invest 101:1789-1796, 1998).

SW948CPTL cells [1] = test: cell cycle analysis; type: cell-based, human
SW948CPTL cells [2] = test: intracellular accumulation of CPT-11 (HPLC), effect of verapamil; type: cell-based, human; details: SW948CPTL vs parent SW948; CPT-11 160 μM, 2 hours, 37° C. (FIG. 6A)
Excerpt: (§1) 10. […] Cells were washed, trypsinized, and counted. Cell pellets were lysed with water and sonicated. […] Results were generated from three independent experiments. […] Data are expressed as mean±SD. […] Data are the mean±SD of two experiments done in triplicate.
(§2) Additionally, multidrug resistance can be evaluated by measuring the expression level of p-glycoprotein (p-gp) (Juliano et al Biochim Biophys Acta 11:152-162, 1976) and breast cancer resistant protein (BCRP) (Doyle et al Proc Natl Acad Sci U S A 95:15665-15670, 1998) in SW948 and the resistant SW948 cell lines (SW948CPTH and SW948CPTL). It is understood that the disclosed methods can also be used with other cell lines including other colon cancer cell lines. For example, the disclosed methods can be used with LS174T, WiDr, HT-29, SW403, DLD-1, SW480, SNU-C1, Caco-2, and COLO 205 cell lines.

SW948CPTH cells = test: as above; type: cell-based, human; details: SW948CPTH vs parent SW948; CPT-11 160 μM, 2 hours, 37° C. (FIG. 6A)
Excerpt: as §1, §2

SMILES: CCc1c2c(nc3ccc(OC(=O)N4CCC(N5CCCCC5)CC4)cc13)-c1cc3c(c(=O)n1C2)COC(=O)[C@]3(O)CC [CPT-11, Irinotecan]
- IC50 (SW948 cells; SW948, read-out: CPT-11 IC50 concentration (colony formation)): 2.8 µg/mL (≈ 4.77 µM)
- IC50 (SW948 cells; read-out: CPT-11 IC50 of untreated SW948 cells, untreated SW948, mean value): 2.1 ± 0.3 µg/mL (≈ 3.58 µM)
- G0-G1(%) (SW948CPTL cells [1]; CPT-11 1 μg/ml): 50.0 ± 1.7%
- G2-M(%) (SW948CPTL cells [1]; CPT-11 1 μg/ml): 10.0 ± 1.4%
- S(%) (SW948CPTL cells [1]; CPT-11 1 μg/ml): 40.3 ± 2.4%
- G2-M(%) (SW948CPTL cells [1]; CPT-11 2 μg/ml): 11.2 ± 2.6%
- S(%) (SW948CPTL cells [1]; CPT-11 2 μg/ml): 43.1 ± 6.5%
- G2-M(%) (SW948CPTL cells [1]; CPT-11 5 μg/ml): 13.9 ± 2.2%
- S(%) (SW948CPTL cells [1]; CPT-11 5 μg/ml): 40.8 ± 6.4%
- change of cell cycle (SW948CPTL cells [1]; similar amount of CPT-11): did not cause any change
- intracellular accumulation of CPT-11 (SW948CPTL cells [2]): lower than the parent cell line SW948
- intracellular accumulation of CPT-11 (SW948CPTH cells): lower than the parent cell line SW948
